# Molecular target: T1, full length human recombinant glucocorticoid receptor (Homo sapiens, UniProt P04150)
# T1 construct: partially purified full length human recombinant glucocorticoid receptor; purchased Panvera/Invitrogen PV4302
# T1 sequence (P04150 1-777): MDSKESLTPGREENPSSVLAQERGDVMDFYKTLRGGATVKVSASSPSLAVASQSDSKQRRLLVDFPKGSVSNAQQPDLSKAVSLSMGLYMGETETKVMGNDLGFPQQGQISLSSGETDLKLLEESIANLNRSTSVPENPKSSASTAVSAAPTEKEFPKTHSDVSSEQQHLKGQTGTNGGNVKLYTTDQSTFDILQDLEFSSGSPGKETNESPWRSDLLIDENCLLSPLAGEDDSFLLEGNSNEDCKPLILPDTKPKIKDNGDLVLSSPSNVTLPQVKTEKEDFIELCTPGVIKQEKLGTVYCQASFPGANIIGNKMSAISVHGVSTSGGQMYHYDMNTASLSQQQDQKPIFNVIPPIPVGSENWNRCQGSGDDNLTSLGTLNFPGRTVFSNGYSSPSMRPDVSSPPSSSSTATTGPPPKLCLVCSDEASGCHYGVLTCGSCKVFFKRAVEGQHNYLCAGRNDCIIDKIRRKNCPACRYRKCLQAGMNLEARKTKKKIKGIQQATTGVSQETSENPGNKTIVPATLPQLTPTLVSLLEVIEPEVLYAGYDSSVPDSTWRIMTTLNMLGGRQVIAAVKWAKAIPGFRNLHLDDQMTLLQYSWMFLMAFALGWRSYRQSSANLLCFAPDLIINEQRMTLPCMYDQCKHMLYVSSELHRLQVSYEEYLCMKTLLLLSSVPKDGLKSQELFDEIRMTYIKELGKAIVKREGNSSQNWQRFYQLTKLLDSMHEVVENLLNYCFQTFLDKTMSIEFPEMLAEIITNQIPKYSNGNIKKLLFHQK
# Assay: Glucocorticoid Receptor Binding Assay (fluorescence polarization competitor assay, Fluormone GS Far Red tracer)
# Outline: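 Serially diluted compounds competed with the tight-binding far-red fluorescent ligand for recombinant full-length human glucocorticoid receptor plus GR-stabilizing peptide (screening buffer pH 7.4; 3 h, 22 °C, dark). Polarization (610-660 nm) gave IC50 via sigmoidal dose-response fits, and Ki was derived by Cheng-Prusoff from tracer concentration and Kd.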
row,Compound,Ki
1,"C[C@H](c1ccc(-c2ccc(C(=O)O)c(F)c2)cc1Cl)[C@@](O)(c1ccc(C#N)n1C)C(F)(F)F (stereo in doubt) [Example 230, 3′-Chloro-4′-[2-(5-cyano-1-methyl-1H-pyrrol-2-yl)-3,3,3-trifluoro-2-hydroxy-1-methyl-propyl]-3-fluoro-biphenyl-4-carboxylic acid]",24.9 nM
2,"CCOC(=O)c1cccc(-c2ccc([C@@H](C)[C@@](O)(c3ccnc(-c4cccc(C(=O)OCC)c4)c3)C(F)(F)F)c(Cl)c2)c1 (stereo in doubt) [Example 56, 3′-Chloro-4′-{2-[2-(3-ethoxycarbonyl-phenyl)-pyridin-4-yl]-3,3,3-trifluoro-2-hydroxy-1-methyl-propyl}-biphenyl-3-carboxylic acid ethyl ester]",207 nM
3,"COc1cc(Oc2ccc(C(C)C(O)(c3ccnc(Cl)c3)C(F)(F)F)c(Cl)c2)ccc1C(=O)O (stereo not shown) [Example 86, 4-{3-Chloro-4-[2-(2-chloro-pyridin-4-yl)-3,3,3-trifluoro-2-hydroxy-1-methyl-propyl]-phenoxy}-2-methoxy-benzoic acid]",16.4 nM
4,"C[C@H](c1ccc(C(=O)Nc2cc(C(=O)O)ccn2)cc1Cl)[C@@](O)(c1ccnc(Cl)c1)C(F)(F)F (stereo in doubt) [Example 29, 2-{3-Chloro-4-[2-(2-chloro-pyridin-4-yl)-3,3,3-trifluoro-2-hydroxy-1-methyl-propyl]-benzoylamino}-isonicotinic acid]",171 nM
5,"C[C@H](c1ccc(-c2ccc(C(=O)O)c(F)c2)cc1Cl)[C@@](O)(c1ccnc(Cl)c1)C(F)(F)F (stereo in doubt) [Example 54, 3′-Chloro-4′-[2-(2-chloro-pyridin-4-yl)-3,3,3-trifluoro-2-hydroxy-1-methyl-propyl]-3-fluoro-biphenyl-4-carboxylic acid]",29.7 nM
6,"COC(=O)c1ccc(-c2ccc([C@H](C)[C@](O)(c3ccc(OC)nc3)C(F)(F)F)c(Cl)c2)cc1Cl (stereo in doubt) [Example 178, 3,3′-Dichloro-4′-[3,3,3-trifluoro-2-hydroxy-2-(6-methoxy-pyridin-3-yl)-1-methyl-propyl]-biphenyl-4-carboxylic acid methyl ester]",72.1 nM
7,"Cc1cc(C(O)(C(C)c2ccc(Oc3cccc(C(=O)O)c3)cc2Cl)C(F)(F)F)ccn1 (stereo not shown) [Example 59, 3-{3-Chloro-4-[3,3,3-trifluoro-2-hydroxy-1-methyl-2-(2-methyl-pyridin-4-yl)-propyl]-phenoxy}-benzoic acid]",11.2 nM
8,"COC(=O)c1ccc(COc2ccc([C@@H](C)[C@@](O)(c3cnc(C)cn3)C(F)(F)F)c(Cl)c2)c(Cl)c1 (stereo in doubt) [Example 13, 3-Chloro-4-{3-chloro-4-[3,3,3-trifluoro-2-hydroxy-1-methyl-2-(5-methyl-pyrazin-2-yl)-propyl]-phenoxymethyl}-benzoic acid methyl ester]",11.8 nM
9,"CC(c1ccc(NC(=O)c2cccc(CC(=O)O)c2)cc1Cl)C(O)(c1ccnc(Cl)c1)C(F)(F)F (stereo not shown) [Example 73, (3-{3-Chloro-4-[2-(2-chloro-pyridin-4-yl)-3,3,3-trifluoro-2-hydroxy-1-methyl-propyl]-phenylcarbamoyl}-phenyl)-acetic acid]",93.5 nM
10,"COc1cc(-c2ccc([C@H](C)[C@](O)(c3ccc(=O)n(C)c3)C(F)(F)F)c(Cl)c2)ccc1C(=O)O (stereo in doubt) [Example 174, 3′-Chloro-3-methoxy-4′-[3,3,3-trifluoro-2-hydroxy-1-methyl-2-(1-methyl-6-oxo-1,6-dihydro-pyridin-3-yl)-propyl]-biphenyl-4-carboxylic acid]",97.3 nM
11,"Cc1cnc(C(O)(C(C)c2ccc(OCc3cccc(C(=O)O)c3)cc2Cl)C(F)(F)F)cn1 (stereo not shown) [Example 4, 3-{3-Chloro-4-[3,3,3-trifluoro-2-hydroxy-1-methyl-2-(5-methyl-pyrazin-2-yl)-propyl]-phenoxymethyl}-benzoic acid]",175 nM
12,"CC(c1ccc(OCc2cnc(C(=O)O)cn2)cc1Cl)C(O)(c1ccnc(Cl)c1)C(F)(F)F (stereo not shown) [Example 113, 5-{3-Chloro-4-[2-(2-chloro-pyridin-4-yl)-3,3,3-trifluoro-2-hydroxy-1-methyl-propyl]-phenoxymethyl}-pyrazine-2-carboxylic acid]",13.6 nM
13,"C[C@H](c1ccc(OS(=O)(=O)c2ccc(C(=O)O)cc2)cc1Cl)[C@@](O)(c1ccnc(Cl)c1)C(F)(F)F (stereo in doubt) [Example 25, 4-{3-Chloro-4-[2-(2-chloro-pyridin-4-yl)-3,3,3-trifluoro-2-hydroxy-1-methyl-propyl]-phenoxysulfonyl}-benzoic acid]",11.5 nM

# Molecules with a lower Ki, results first:
row,Ki,Compound
1,8.2 nM,"CCOC(=O)c1ccc(COc2ccc(C(C)C(O)(c3ccnc(C)c3)C(F)(F)F)c(Cl)c2)cc1 (stereo not shown) [Example 93, 4-{3-Chloro-4-[3,3,3-trifluoro-2-hydroxy-1-methyl-2-(2-methyl-pyridin-4-yl)-propyl]-phenoxymethyl}-benzoic acid ethyl ester]"
2,3.4 nM,"CC(c1ccc(Oc2ccc(C(=O)O)cc2Cl)cc1Cl)C(O)(c1ccnc(Cl)c1)C(F)(F)F (stereo not shown) [Example 89, 3-Chloro-4-{3-chloro-4-[2-(2-chloro-pyridin-4-yl)-3,3,3-trifluoro-2-hydroxy-1-methyl-propyl]-phenoxy}-benzoic acid]"
3,0.9 nM,"COC(=O)c1ccc(Oc2ccc([C@H](C)[C@](O)(c3cc(C)c(=O)n(C)c3)C(F)(F)F)c(Cl)c2)cc1Cl (stereo in doubt) [Example 207, 2-Chloro-4-{3-chloro-4-[2-(1,5-dimethyl-6-oxo-1,6-dihydro-pyridin-3-yl)-3,3,3-trifluoro-2-hydroxy-1-methyl-propyl]-phenoxy}-benzoic acid methyl ester]"
4,9.5 nM,"C[C@@H](c1ccc(-c2ccc(C(=O)O)c(F)c2)cc1Cl)[C@](O)(c1cccc2cnccc12)C(F)(F)F (stereo in doubt) [Example 150, 3′-Chloro-3-fluoro-4′-(3,3,3-trifluoro-2-hydroxy-2-isoquinolin-5-yl-1-methyl-propyl)-biphenyl-4-carboxylic acid]"
5,6.4 nM,"Cc1cc(C(O)(C(C)c2ccc(-c3cccc(CC(=O)O)c3)cc2Cl)C(F)(F)F)ccn1 (stereo not shown) [Example 63, {3′-Chloro-4′-[3,3,3-trifluoro-2-hydroxy-1-methyl-2-(2-methyl-pyridin-4-yl)-propyl]-biphenyl-3-yl}-acetic acid]"
6,2.1 nM,"CC(c1ccc(Oc2ccc(C(=O)O)cc2)cc1Cl)C(O)(c1ccnc(Cl)c1)C(F)(F)F (stereo not shown) [Example 80, 4-{3-Chloro-4-[2-(2-chloro-pyridin-4-yl)-3,3,3-trifluoro-2-hydroxy-1-methyl-propyl]-phenoxy}-benzoic acid]"
7,1.7 nM,"Cc1cc([C@@](O)([C@@H](C)c2ccc(Oc3ccc(C(=O)O)cc3C(F)(F)F)cc2Cl)C(F)(F)F)cn(C)c1=O (single isomer, unassigned) [Example 219, 4-{3-Chloro-4-[2-(1,5-dimethyl-6-oxo-1,6-dihydro-pyridin-3-yl)-3,3,3-trifluoro-2-hydroxy-1-methyl-propyl]-phenoxy}-3-trifluoromethyl-benzoic acid]"
8,0.5 nM,"Cc1cc([C@@](O)([C@@H](C)c2ccc(Oc3ccc(C(=O)O)c(F)c3)cc2Cl)C(F)(F)F)cn(C)c1=O [Example 248, 4-{3-Chloro-4-[(1S,2S)-2-(1,5-dimethyl-6-oxo-1,6-dihydro-pyridin-3-yl)-3,3,3-trifluoro-2-hydroxy-1-methyl-propyl]-phenoxy}-2-fluoro-benzoic acid]"
9,9.1 nM,"COC(=O)c1ccnc(COc2ccc(C(C)C(O)(c3ccnc(C)c3)C(F)(F)F)c(Cl)c2)c1 (stereo not shown) [Example 99, 2-{3-Chloro-4-[3,3,3-trifluoro-2-hydroxy-1-methyl-2-(2-methyl-pyridin-4-yl)-propyl]-phenoxymethyl}-isonicotinic acid methyl ester]"
10,1.8 nM,"C[C@@H](c1ccc(OCc2ccc(CC(=O)O)cc2)cc1Cl)[C@](O)(c1cccc2cnccc12)C(F)(F)F (stereo in doubt) [Example 149, {4-[3-Chloro-4-(3,3,3-trifluoro-2-hydroxy-2-isoquinolin-5-yl-1-methyl-propyl)-phenoxymethyl]-phenyl}-acetic acid]"
11,1.6 nM,C[C@H](c1ccc(Oc2ccc(OCC(=O)O)cc2)cc1Cl)[C@@](O)(c1ccc(=O)n(C)c1)C(F)(F)F [Example 160]
12,4.7 nM,"C[C@H](c1ccc(OCc2ccc(CC(=O)O)cc2)cc1Cl)[C@@](O)(c1ccnc(Cl)c1)C(F)(F)F (stereo in doubt) [Example 24, (4-{3-Chloro-4-[2-(2-chloro-pyridin-4-yl)-3,3,3-trifluoro-2-hydroxy-1-methyl-propyl]-phenoxymethyl}-phenyl)-acetic acid]"

# From patent US8138189B2, “Substituted benzene compounds as modulators of the glucocorticoid receptor” (Hoffman-La Roche Inc., priority 2009, dated 2012)
